IC50 data for two compounds are collected here from US11638712B2, “Bis(acetamidophenyl) guanidinophenylethylphosphonates for use in the prevention and/or treatment of PAR-related diseases” (Universiteit Antwerpen, priority 2016, dated 2023).

Holding throughout (assay type): biochemical
One test concerns the target tPA (Homo sapiens, UniProt P00750). In words: in vitro serine protease inhibition profile: tPA.
The next test has as its target T1, thrombin (Homo sapiens, UniProt P00734).
T1 construct: panel of serine proteases: uPA, tPA, thrombin, plasmin, FXIIa
Put plainly: in vitro serine protease inhibition profile: thrombin.

For another test, the target named is T2, plasmin (Homo sapiens, UniProt P00747).
T2 construct: panel of serine proteases: uPA, tPA, thrombin, plasmin, FXIIa
T2 sequence (P00747 581-810 limits assumed, species assumed): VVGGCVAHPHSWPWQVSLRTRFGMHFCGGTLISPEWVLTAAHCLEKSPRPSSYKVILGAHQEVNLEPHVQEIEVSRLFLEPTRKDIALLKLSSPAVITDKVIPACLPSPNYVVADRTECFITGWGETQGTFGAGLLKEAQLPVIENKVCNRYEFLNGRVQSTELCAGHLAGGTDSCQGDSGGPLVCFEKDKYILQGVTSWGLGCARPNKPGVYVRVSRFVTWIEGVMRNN
T2 sequence (P00747 97-580 partner limits assumed, species assumed): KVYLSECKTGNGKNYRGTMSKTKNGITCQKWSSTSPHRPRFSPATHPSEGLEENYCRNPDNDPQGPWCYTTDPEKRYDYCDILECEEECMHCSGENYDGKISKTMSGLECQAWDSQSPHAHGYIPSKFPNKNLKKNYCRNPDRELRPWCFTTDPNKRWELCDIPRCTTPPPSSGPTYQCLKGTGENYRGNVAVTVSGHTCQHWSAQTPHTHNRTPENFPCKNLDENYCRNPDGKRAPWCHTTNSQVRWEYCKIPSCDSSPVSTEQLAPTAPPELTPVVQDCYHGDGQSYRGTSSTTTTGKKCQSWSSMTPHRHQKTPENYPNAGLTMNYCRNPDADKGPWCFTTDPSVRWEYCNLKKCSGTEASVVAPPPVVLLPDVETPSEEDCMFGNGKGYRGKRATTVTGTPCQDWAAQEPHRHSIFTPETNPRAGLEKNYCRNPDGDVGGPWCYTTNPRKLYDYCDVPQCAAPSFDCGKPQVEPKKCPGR
Put plainly: in vitro serine protease inhibition profile: plasmin.

A further test deals with tryptase (Homo sapiens, UniProt Q15661). In words: in vitro serine protease inhibition profile: tryptase.
Sequence of tryptase (Q15661 31-275): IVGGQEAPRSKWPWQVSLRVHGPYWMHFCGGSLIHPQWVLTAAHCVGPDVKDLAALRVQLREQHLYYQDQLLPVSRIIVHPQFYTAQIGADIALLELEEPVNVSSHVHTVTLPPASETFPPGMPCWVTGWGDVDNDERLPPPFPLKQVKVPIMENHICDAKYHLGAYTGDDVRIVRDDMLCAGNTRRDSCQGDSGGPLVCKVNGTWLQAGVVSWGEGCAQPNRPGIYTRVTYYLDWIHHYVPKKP
In the next test the target is T3, cathepsinG (Homo sapiens, UniProt P08311).
T3 sequence (P08311 21-244): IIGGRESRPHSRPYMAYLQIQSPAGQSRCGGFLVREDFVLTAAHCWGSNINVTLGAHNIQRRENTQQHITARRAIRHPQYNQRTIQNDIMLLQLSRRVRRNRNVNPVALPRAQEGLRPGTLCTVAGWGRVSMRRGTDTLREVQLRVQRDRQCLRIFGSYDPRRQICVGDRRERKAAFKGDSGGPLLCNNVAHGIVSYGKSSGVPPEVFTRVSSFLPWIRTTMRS
In words: in vitro serine protease inhibition profile: cathepsinG.

For a further test, the target named is T4, matriptase (Homo sapiens, UniProt Q9Y5Y6).
T4 sequence (Q9Y5Y6 1-855): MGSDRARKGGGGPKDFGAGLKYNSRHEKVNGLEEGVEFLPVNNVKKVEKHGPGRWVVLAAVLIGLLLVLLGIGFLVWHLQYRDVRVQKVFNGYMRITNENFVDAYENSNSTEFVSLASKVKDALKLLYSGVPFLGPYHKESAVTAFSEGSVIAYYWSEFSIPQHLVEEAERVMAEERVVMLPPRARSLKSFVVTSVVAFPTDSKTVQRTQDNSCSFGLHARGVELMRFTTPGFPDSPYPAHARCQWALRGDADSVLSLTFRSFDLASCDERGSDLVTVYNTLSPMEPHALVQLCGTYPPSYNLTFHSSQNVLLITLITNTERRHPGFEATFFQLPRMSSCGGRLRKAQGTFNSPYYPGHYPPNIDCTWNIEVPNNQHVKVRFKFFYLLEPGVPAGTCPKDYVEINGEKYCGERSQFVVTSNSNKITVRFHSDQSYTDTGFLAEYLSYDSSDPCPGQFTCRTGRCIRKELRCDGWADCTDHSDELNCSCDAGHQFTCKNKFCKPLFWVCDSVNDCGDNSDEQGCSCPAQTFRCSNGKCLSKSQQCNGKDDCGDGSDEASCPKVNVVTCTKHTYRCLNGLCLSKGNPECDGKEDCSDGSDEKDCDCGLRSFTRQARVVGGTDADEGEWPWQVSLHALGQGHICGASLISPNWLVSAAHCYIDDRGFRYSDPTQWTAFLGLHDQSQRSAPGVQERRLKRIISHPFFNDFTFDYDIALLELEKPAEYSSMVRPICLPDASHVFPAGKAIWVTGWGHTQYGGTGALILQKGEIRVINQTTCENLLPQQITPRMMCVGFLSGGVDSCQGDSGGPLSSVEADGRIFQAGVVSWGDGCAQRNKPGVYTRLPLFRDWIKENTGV
In words: in vitro serine protease inhibition profile: matriptase.

In a further test the target is KLK1 (Homo sapiens, UniProt P06870). Put plainly: in vitro serine protease inhibition profile: KLK1.
Sequence of KLK1 (P06870 25-262, species assumed): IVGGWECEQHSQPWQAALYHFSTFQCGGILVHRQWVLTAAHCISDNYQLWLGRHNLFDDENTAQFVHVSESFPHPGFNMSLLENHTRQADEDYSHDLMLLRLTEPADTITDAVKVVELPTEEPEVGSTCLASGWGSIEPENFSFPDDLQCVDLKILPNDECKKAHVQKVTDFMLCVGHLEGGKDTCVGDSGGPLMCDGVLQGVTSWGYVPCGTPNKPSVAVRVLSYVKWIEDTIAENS
Another test has as its target KLK2 (Homo sapiens, UniProt P20151). In words: in vitro serine protease inhibition profile: KLK2.
A further test concerns the target KLK4 (Homo sapiens, UniProt Q9Y5K2). Put plainly: in vitro serine protease inhibition profile: KLK4.
The target in another test is T5, KLK8 (Homo sapiens, UniProt O60259).
T5 sequence (O60259 33-260): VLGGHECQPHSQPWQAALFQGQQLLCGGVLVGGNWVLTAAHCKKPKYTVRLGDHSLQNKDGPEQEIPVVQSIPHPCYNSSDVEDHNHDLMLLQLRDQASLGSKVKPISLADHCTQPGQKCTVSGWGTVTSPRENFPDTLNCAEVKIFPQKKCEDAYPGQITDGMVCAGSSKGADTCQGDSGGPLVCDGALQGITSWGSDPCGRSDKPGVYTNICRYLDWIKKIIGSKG
Put plainly: in vitro serine protease inhibition profile: KLK8.

In the next test the target is T6, FXIIa (Homo sapiens, UniProt P00748).
T6 construct: panel of serine proteases: uPA, tPA, thrombin, plasmin, FXIIa
T6 sequence (P00748 373-615 limits assumed, other chains not shown): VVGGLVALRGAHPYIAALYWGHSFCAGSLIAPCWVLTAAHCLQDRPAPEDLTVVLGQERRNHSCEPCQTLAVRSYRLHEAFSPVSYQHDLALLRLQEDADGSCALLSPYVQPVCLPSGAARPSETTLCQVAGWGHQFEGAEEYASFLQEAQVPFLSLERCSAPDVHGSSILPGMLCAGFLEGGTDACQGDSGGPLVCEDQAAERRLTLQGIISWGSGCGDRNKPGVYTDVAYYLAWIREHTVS
Put plainly: in vitro serine protease inhibition profile: FXIIa.

Another test addresses T7, HNE (Homo sapiens, UniProt P08246).
T7 sequence (P08246 30-267): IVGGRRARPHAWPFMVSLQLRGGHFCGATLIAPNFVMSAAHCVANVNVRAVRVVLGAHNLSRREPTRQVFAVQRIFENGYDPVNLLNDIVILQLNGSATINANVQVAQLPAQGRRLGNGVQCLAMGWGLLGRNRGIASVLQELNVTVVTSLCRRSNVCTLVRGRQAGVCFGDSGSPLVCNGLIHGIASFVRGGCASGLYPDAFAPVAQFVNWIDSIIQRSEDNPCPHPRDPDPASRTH
Put plainly: in vitro serine protease inhibition profile: HNE.

Where only a bound is given, the exact number is not on record here.

In general, IC50 refers to the concentration needed to halve the response being measured.

Sequence of tPA (P00750 36-562, species assumed): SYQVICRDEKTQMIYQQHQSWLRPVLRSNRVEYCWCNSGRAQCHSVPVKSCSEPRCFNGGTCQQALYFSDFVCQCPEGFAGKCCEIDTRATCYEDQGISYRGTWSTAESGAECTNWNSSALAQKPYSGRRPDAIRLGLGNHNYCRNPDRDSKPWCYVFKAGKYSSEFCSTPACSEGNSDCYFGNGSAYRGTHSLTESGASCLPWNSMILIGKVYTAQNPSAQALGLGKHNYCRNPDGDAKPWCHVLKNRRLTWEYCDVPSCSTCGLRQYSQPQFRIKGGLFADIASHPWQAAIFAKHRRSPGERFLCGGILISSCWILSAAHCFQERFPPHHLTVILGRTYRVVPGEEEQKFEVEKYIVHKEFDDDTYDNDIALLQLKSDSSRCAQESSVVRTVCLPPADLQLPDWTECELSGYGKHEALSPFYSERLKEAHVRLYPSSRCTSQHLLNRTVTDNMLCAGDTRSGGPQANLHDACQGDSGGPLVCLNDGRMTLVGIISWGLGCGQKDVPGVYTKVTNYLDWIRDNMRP
Sequence of KLK2 (P20151 25-261, species assumed): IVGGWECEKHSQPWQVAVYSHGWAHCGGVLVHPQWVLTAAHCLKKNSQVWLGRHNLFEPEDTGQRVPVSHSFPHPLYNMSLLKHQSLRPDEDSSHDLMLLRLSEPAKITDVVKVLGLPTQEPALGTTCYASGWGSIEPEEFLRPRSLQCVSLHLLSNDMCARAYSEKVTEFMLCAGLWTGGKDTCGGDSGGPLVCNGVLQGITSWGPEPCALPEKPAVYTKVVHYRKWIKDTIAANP
Sequence of KLK4 (Q9Y5K2 31-254, species assumed): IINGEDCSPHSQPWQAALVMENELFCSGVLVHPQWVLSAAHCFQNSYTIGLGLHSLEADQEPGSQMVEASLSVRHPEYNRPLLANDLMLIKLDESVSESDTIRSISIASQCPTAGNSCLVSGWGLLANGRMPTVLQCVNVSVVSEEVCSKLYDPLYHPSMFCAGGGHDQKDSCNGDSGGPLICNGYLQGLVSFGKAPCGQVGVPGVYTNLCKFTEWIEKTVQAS

`COC(=O)NC(Cc1ccc(NC(=N)N)cc1)P(=O)(Oc1ccccc1)Oc1ccccc1` (stereo not drawn) [Compound 1]: the IC50 is over 2500 nM on tPA; over 2500 nM on thrombin; over 2500 nM at plasmin; 93 nM on tryptase; 329 nM at cathepsinG; 82 nM against matriptase. The IC50 against KLK1 is over 2500 nM; at KLK2, over 2500 nM; on KLK4, 9 nM; on KLK8 it was 28 nM; on FXIIa it was over 2500 nM; against HNE it was over 2500 nM.

With `CC(=O)Nc1ccc(OP(=O)(Oc2ccc(NC(C)=O)cc2)C(Cc2ccc(NC(=N)N)cc2)NC(=O)OCc2ccccc2)cc1` (stereo not drawn) [Compound 4], the IC50 is over 2500 nM on tPA; 257 nM against thrombin; over 2500 nM against plasmin; 5 nM against tryptase; 120 nM against cathepsinG; 3 nM on matriptase. Moreover, the IC50 was over 2500 nM on KLK1; 115 nM on KLK2; 2 nM at KLK4; 2 nM on KLK8; 1610 nM at FXIIa; over 2500 nM on HNE.
